Patent US12433876B2, “Septin inhibitors for treatment of cancers” (UNIVERSITY OF ROCHESTER, priority 2019, dated 2025)

Tested on: Cullin-3
Assay: Cell Cycle Antibody Array, PANC-1 cells
Format: cell-based
Conditions: normalized to GAPDH
Text: Cell Cycle Protein Expression. Cell Cycle Antibody Array (FullMoon BioSystems Inc, catalogue number: ACC:058), a high throughput ELISA based antibody array, designed for qualitative/semi-quantitative protein expression profiling was employed to investigate the protein changes after drug treatment. PANC-1 cells were lysed in buffer containing protease and phosphatase inhibitors (Cell Signaling, catalog number: 9803S). Total protein content was quantified by Bradford assay and equal amounts of proteins were analyzed in duplicate with arrays containing 4 to 6 spots for each of 60 probes (ACC058, Cell Cycle Antibody Array; Full Moon Biosystems, Sunnyvale, Calif.), according to manufacturer's instructions. After background correction, mean signal intensities were measured using FullMoon Inc's imaging services. Protein expressions in both the naïve and 328 treatment group was normalized to GAPDH signals. Confocal Analysis of Septin Disarrangement. To determine the impact of UR214-9 treatment on Septin-2 structure in cells, PANC-1 or JIMT-1 cells were seeded on glass slides and allowed to adhere overnight. The media was replaced with complete DMEM media supplemented with DMSO or UR214-9 (1 μM and 70 nM) and cells were incubated for 48 hours. […] The cells were stained with fluorescence linked secondary antibody for 1 hr under dark. […] Five cells were outlined and analyzed per field. […]

SMILES: O=C(Nc1cc(Cl)nc(Cl)c1)Nc1cccc(SC(F)(F)F)c1F [UR214-9]
- Cullin-3 expression, treated versus naïve: most pronounced upregulation
